# Reference: publication PMC6017631, “The Effect of Combining Natural Terpenes and Antituberculous Agents against Reference and Clinical Mycobacterium tuberculosis Strains” (Molecules : A Journal of Synthetic Chemistry and Natural …, 2018)
# Where two headings read alike, the source gives them in different places. Marks after values point to notes of the source that are not given here.
# Legend:
# [1] = system: clinical isolate 192 (susceptible); experiment: microbe, parasite or virus in culture; type: cell-based, Mycobacterium tuberculosis
# GMK cells = experiment: Cytotoxicity, MTT assay; type: cell-based, African green monkey; conditions: GMK cells, 48 h exposure, MTT; highest tested concentration 500 μg/mL
# Protocol: (§1) The cytotoxicity experiment was performed using African green monkey kidney epithelial cells (GMK) obtained from BIOMED-Lublin S.A. (Lublin, Poland). The cells were cultured in EMEM medium (ATCC-LGC Standards, Cumberland, ME, USA) supplemented with 10% foetal bovine serum (FBS, Pan-Biotech, Aidenbach, Germany), penicillin (100 U/mL), and streptomycin (100 μg/mL) (Sigma-Aldrich, St. Louis, MO, USA). The GMK cells were maintained at 37 °C in a humidified atmosphere of 5% CO2 and 95% air. The GMK cells were seeded in 96-multiwell plates in 100 μL of the complete EMEM medium at a concentration of 3 × 10^5 cells/mL (3 × 10^4 cells/well) and the plates were maintained at 37 °C for 24 h. Then, the culture medium was replaced with 100 µL of different concentrations of tested agents and 2 reference anti-mycobacterial drugs—rifampicin and isoniazid. The stock solutions of all compounds were prepared in DMSO (Sigma-Aldrich, St. Louis, MO, USA), thus the highest solvent concentrations (1% and 0.5% DMSO) used in the experiment were tested in parallel to exclude potential toxicity associated with the use of DMSO. Different concentrations of the tested agents were obtained by six serial 2-fold dilutions using culture medium (the highest tested concentration was equal 500 µg/mL). GMK cells maintained in culture medium without anti-mycobacterial agent served as a negative control of cytotoxicity. The cells were exposed to tested compounds and reference drugs for 48 h, then cytotoxicity test was performed using MTT assay (Sigma-Aldrich, St. Louis, MO, USA) as it was described previously. The cytotoxicity test was repeated in three separate experiments (n = 3) and each experiment was carried out in quadruplicate. The IC50 values (concentration reducing viability of GMK cells by 50%) were determined using GraphPad Prism 5, Version 5.03 software (GraphPad Software, Inc., La Jolla, CA, USA).
# H37RV ATTC 25618 = experiment: MIC determination, serial dilution in Middlebrook 7H9, and FICI; type: cell-based, Mycobacterium tuberculosis
# Mtb H37Ra ATTC 25177 = experiment: as above; type: cell-based, Mycobacterium tuberculosis
# clinical isolate 253/16 = experiment: microbe, parasite or virus in culture; type: cell-based, Mycobacterium tuberculosis
# Cytotoxicity, MTT assay = type: cell-based, African green monkey; conditions: African green monkey; for IC50 at 48 h: GMK cells, 48 h exposure, MTT, highest tested concentration 500 μg/mL
# Protocol: as §1
# [2] = system: reference virulent strain H37Rv; set-up: method as in PMID 26400221; conditions: Alamar Blue technique, 8 days of incubation ref 36; cited from earlier work
# Vero cell line = conditions: cited from earlier work
# [3] = compounds tested separately, 192
# [4] = compounds tested separately, H37Rv
# [5] = compounds tested separately, 253/16
# [6] = Mycobacterium tuberculosis, compounds tested separately, H37Rv, read-out: MIC
# [7] = Mycobacterium tuberculosis, compounds tested separately, read-out: MIC
# [8] = GMK cells (African green monkey kidney epithelial cells)
# [9] = Mycobacterium tuberculosis, H37RV
# [10] = Mycobacterium tuberculosis, read-out: MIC for EMB in a Presence of Terpenes
# [11] = Mycobacterium tuberculosis, read-out: MIC for INH in a Presence of Terpenes
# [12] = Mycobacterium tuberculosis, read-out: MIC for RMP in a Presence of Terpenes
# [13] = Mycobacterium tuberculosis, H37RV, read-out: MIC for INH in a Presence of Terpenes
# [14] = Mycobacterium tuberculosis, H37Rv, subinhibitory concentration of the terpene, read-out: MIC for EMB in a Presence of Terpenes
# [15] = Mycobacterium tuberculosis, H37Rv, subinhibitory concentration of the terpene, read-out: MIC for RMP in a Presence of Terpenes
# [16] = Mycobacterium tuberculosis, subinhibitory concentration of the terpene, read-out: MIC for EMB in a Presence of Terpenes
# [17] = Mycobacterium tuberculosis, subinhibitory concentration of the terpene, read-out: MIC for INH in a Presence of Terpenes
# [18] = Mycobacterium tuberculosis, subinhibitory concentration of the terpene, read-out: MIC for RMP in a Presence of Terpenes
compound,measurement,setting,value
C=C(C)[C@H]1CC=C(C)CC1 [(R)-limonene],MIC,[1]; [3],128 µg/mL
same,IC50 (cytotoxicity),GMK cells,>500 µg/mL
same,MIC,H37RV ATTC 25618; [4],128 µg/mL
same,MIC,Mtb H37Ra ATTC 25177; compounds tested separately,32 µg/mL
same,MIC,clinical isolate 253/16; [5],256 µg/mL
"CC[C@@H](CO)NCCN[C@@H](CC)CO [EMB, ethambutol, reference compound]",MIC,[1]; Mycobacterium tuberculosis,< 0.125 µg/mL
same,MIC,H37RV ATTC 25618; [6],0.25 µg/mL
same,MIC,Mtb H37Ra ATTC 25177; [7],4 µg/mL
same,MIC,clinical isolate 253/16; Mycobacterium tuberculosis,64 µg/mL
"NNC(=O)c1ccncc1 [INH, isoniazid, reference compound]",MIC,[1]; Mycobacterium tuberculosis,< 0.125 µg/mL
same,IC50 at 48 h,"Cytotoxicity, MTT assay; [8]",> 500 µg/mL
same,MIC,H37RV ATTC 25618; [9],< 0.125 µg/mL
same,MIC,Mtb H37Ra ATTC 25177; [7],0.125 µg/mL
same,MIC,clinical isolate 253/16; Mycobacterium tuberculosis,8 µg/mL
"CO[C@H]1/C=C/O[C@@]2(C)Oc3c(C)c(O)c4c(O)c(c(/C=N/N5CCN(C)CC5)c(O)c4c3C2=O)NC(=O)/C(C)=C\C=C\[C@H](C)[C@H](O)[C@@H](C)[C@@H](O)[C@@H](C)[C@H](OC(C)=O)[C@@H]1C [RMP, rifampicin, reference compound]",MIC,[1]; Mycobacterium tuberculosis,< 0.125 µg/mL
same,IC50 at 48 h,"Cytotoxicity, MTT assay; [8]",142 µg/mL
same,MIC,H37RV ATTC 25618; [6],0.25 µg/mL
same,MIC,Mtb H37Ra ATTC 25177; [7],1 µg/mL
same,MIC,clinical isolate 253/16; Mycobacterium tuberculosis,4 µg/mL
CC(C)=CCC[C@](C)(O)C1CC=C(C)CC1 (stereo partly drawn) [bisabolol],MIC,[1]; [3],16 µg/mL
same,IC50 (cytotoxicity),GMK cells,71.12 µg/mL
same,MIC,H37RV ATTC 25618; [4],16 µg/mL
same,MIC,Mtb H37Ra ATTC 25177; compounds tested separately,64 µg/mL
same,MIC,clinical isolate 253/16; [5],128 µg/mL
Cc1ccc(C(C)C)cc1O [carvacrol],MIC,[2],2.02 µg/mL
C=CC(=C)CCC=C(C)C [myrcene],MIC,[1]; Mycobacterium tuberculosis,256 µg/mL
same,MIC,[1]; [10],< 0.125 µg/mL
same,MIC,[1]; [11],< 0.125 µg/mL
same,MIC,[1]; [12],< 0.125 µg/mL
same,MIC,H37RV ATTC 25618; [9],256 µg/mL
same,MIC,H37RV ATTC 25618; [13],< 0.125 µg/mL
same,MIC,H37RV ATTC 25618; [14],0.25 µg/mL
same,MIC,H37RV ATTC 25618; [15],0.25 µg/mL
same,IC50 (cytotoxicity),Vero cell line; determined on Vero cell Line ref 31,200 * μg/mL
same,cytotoxic activity,"Vero cell line; up to a concentration of 200 μg/mL, Vero cell line ref 33",did not present cytotoxic activity
same,MIC,Mtb H37Ra ATTC 25177; [7],128 µg/mL
same,MIC,Mtb H37Ra ATTC 25177; [16],0.5 µg/mL
same,MIC,Mtb H37Ra ATTC 25177; [17],0.0625 µg/mL
same,MIC,Mtb H37Ra ATTC 25177; [18],0.125 µg/mL
same,MIC,clinical isolate 253/16; Mycobacterium tuberculosis,> 512 µg/mL
same,MIC,clinical isolate 253/16; [10],64 µg/mL
same,MIC,clinical isolate 253/16; [11],8 µg/mL
same,MIC,clinical isolate 253/16; [12],4 µg/mL
Cc1ccc(C(C)C)cc1 [p-cymene],MIC,[2],91 µg/mL
C=C1CCC2(C(C)C)CC12 (stereo not drawn) [sabinene],MIC,[1]; Mycobacterium tuberculosis,128 µg/mL
same,MIC,[1]; [10],< 0.125 µg/mL
same,MIC,[1]; [11],< 0.125 µg/mL
same,MIC,[1]; [12],< 0.125 µg/mL
same,IC50 at 48 h,"Cytotoxicity, MTT assay",348 µg/mL
same,MIC,H37RV ATTC 25618; [9],128 µg/mL
same,MIC,H37RV ATTC 25618; [13],< 0.125 µg/mL
same,MIC,H37RV ATTC 25618; [14],0.25 µg/mL
same,MIC,H37RV ATTC 25618; [15],0.25 µg/mL
same,MIC,Mtb H37Ra ATTC 25177; [7],64 µg/mL
same,MIC,Mtb H37Ra ATTC 25177; [16],0.5 µg/mL
same,MIC,Mtb H37Ra ATTC 25177; [17],0.0625 µg/mL
same,MIC,Mtb H37Ra ATTC 25177; [18],0.0625 µg/mL
same,MIC,clinical isolate 253/16; Mycobacterium tuberculosis,256 µg/mL
same,MIC,clinical isolate 253/16; [10],64 µg/mL
same,MIC,clinical isolate 253/16; [11],8 µg/mL
same,MIC,clinical isolate 253/16; [12],4 µg/mL
Cc1ccc(C(C)C)c(O)c1 [thymol],MIC,[2],0.78 µg/mL
CC1=CCC2CC1C2(C)C (stereo not drawn) [α-pinene],MIC,[1]; Mycobacterium tuberculosis,128 µg/mL
same,MIC,[1]; [10],< 0.125 µg/mL
same,MIC,[1]; [11],< 0.125 µg/mL
same,MIC,[1]; [12],< 0.125 µg/mL
same,IC50 at 48 h,"Cytotoxicity, MTT assay; [8]",> 500 µg/mL
same,"viability at 48 h, 500 µg/mL","Cytotoxicity, MTT assay; GMK cells (African green monkey kidney epithelial cells), exposure to the highest tested concentration (500 μg/mL)",~90%
same,MIC,H37RV ATTC 25618; [9],128 µg/mL
same,MIC,"H37RV ATTC 25618; Mycobacterium tuberculosis, H37RV, read-out: MIC for EMB in a Presence of Terpenes",0.125 µg/mL
same,MIC,H37RV ATTC 25618; [13],< 0.125 µg/mL
same,MIC,H37RV ATTC 25618; [15],0.25 µg/mL
same,MIC,Mtb H37Ra ATTC 25177; [7],128 µg/mL
same,MIC,Mtb H37Ra ATTC 25177; [16],1 µg/mL
same,MIC,Mtb H37Ra ATTC 25177; [17],0.125 µg/mL
same,MIC,Mtb H37Ra ATTC 25177; [18],0.0625 µg/mL
same,MIC,clinical isolate 253/16; Mycobacterium tuberculosis,256 µg/mL
same,MIC,clinical isolate 253/16; [10],32 µg/mL
same,MIC,clinical isolate 253/16; [11],8 µg/mL
same,MIC,clinical isolate 253/16; [12],4 µg/mL
C=C1CC/C=C(\C)CC[C@@H]2[C@@H]1CC2(C)C [β-caryophyllene],MIC,[2],100 µg/mL
C=C[C@]1(C)CC[C@@H](C(=C)C)C[C@H]1C(=C)C [β-elemene],MIC,[1]; [3],256 µg/mL
same,MIC,H37RV ATTC 25618; [4],256 µg/mL
same,MIC,Mtb H37Ra ATTC 25177; compounds tested separately,32 µg/mL
same,MIC,clinical isolate 253/16; [5],>512 µg/mL
(S)-limonene,MIC,[1]; [3],256 µg/mL
same,IC50 (cytotoxicity),GMK cells,>500 µg/mL
same,MIC,H37RV ATTC 25618; [4],256 µg/mL
same,MIC,Mtb H37Ra ATTC 25177; compounds tested separately,32 µg/mL
same,MIC,clinical isolate 253/16; [5],>512 µg/mL
